{
  "source": "PubChem BioAssay (NCI)",
  "assay_in_all_cases": "DTP human tumour cell line panel, 48 h",
  "key": {"786-0 renal": {"test_system": "786-0 renal"}, "A498 renal": {"test_system": "A498 renal"}, "A549 NSCLC": {"test_system": "A549 NSCLC"}, "ACHN renal": {"test_system": "ACHN renal"}, "BT-549 breast": {"test_system": "BT-549 breast"}, "CAKI-1 renal": {"test_system": "CAKI-1 renal"}, "CCRF-CEM leukemia": {"test_system": "CCRF-CEM leukemia"}, "COLO 205 colon": {"test_system": "COLO 205 colon"}, "DLD-1 colon": {"test_system": "DLD-1 colon"}, "DMS 114 small cell lung": {"test_system": "DMS 114 small cell lung"}, "DMS 273 small cell lung": {"test_system": "DMS 273 small cell lung"}, "DU-145 prostate": {"test_system": "DU-145 prostate"}, "EKVX NSCLC": {"test_system": "EKVX NSCLC"}, "HCC-2998 colon": {"test_system": "HCC-2998 colon"}, "HCT-116 colon": {"test_system": "HCT-116 colon"}, "HCT-15 colon": {"test_system": "HCT-15 colon"}, "HL-60(TB) leukemia": {"test_system": "HL-60(TB) leukemia"}, "HOP-18 NSCLC": {"test_system": "HOP-18 NSCLC"}, "HOP-62 NSCLC": {"test_system": "HOP-62 NSCLC"}, "HOP-92 NSCLC": {"test_system": "HOP-92 NSCLC"}, "HS 578T breast": {"test_system": "HS 578T breast"}, "HT29 colon": {"test_system": "HT29 colon"}, "IGROV1 ovarian": {"test_system": "IGROV1 ovarian"}, "K-562 leukemia": {"test_system": "K-562 leukemia"}, "KM12 colon": {"test_system": "KM12 colon"}, "KM20L2 colon": {"test_system": "KM20L2 colon"}, "LOX IMVI melanoma": {"test_system": "LOX IMVI melanoma"}, "LXFL 529 NSCLC": {"test_system": "LXFL 529 NSCLC"}, "M14 melanoma": {"test_system": "M14 melanoma"}, "MALME-3M melanoma": {"test_system": "MALME-3M melanoma"}, "MCF7 breast": {"test_system": "MCF7 breast"}, "MDA-MB-231 breast": {"test_system": "MDA-MB-231 breast"}, "MDA-MB-435": {"test_system": "MDA-MB-435"}, "MDA-N": {"test_system": "MDA-N"}, "MOLT-4 leukemia": {"test_system": "MOLT-4 leukemia"}, "NCI-H226 lung": {"test_system": "NCI-H226 lung"}, "NCI-H23 lung": {"test_system": "NCI-H23 lung"}, "NCI-H460 lung": {"test_system": "NCI-H460 lung"}, "NCI-H522 lung": {"test_system": "NCI-H522 lung"}, "NCI/ADR-RES ovarian": {"test_system": "NCI/ADR-RES ovarian"}, "OVCAR-3 ovarian": {"test_system": "OVCAR-3 ovarian"}, "OVCAR-4 ovarian": {"test_system": "OVCAR-4 ovarian"}, "OVCAR-5 ovarian": {"test_system": "OVCAR-5 ovarian"}, "OVCAR-8 ovarian": {"test_system": "OVCAR-8 ovarian"}, "PC-3 prostate": {"test_system": "PC-3 prostate"}, "RPMI-8226 leukemia": {"test_system": "RPMI-8226 leukemia"}, "RXF 393 renal": {"test_system": "RXF 393 renal"}, "SF-268 CNS": {"test_system": "SF-268 CNS"}, "SF-295 CNS": {"test_system": "SF-295 CNS"}, "SF-539 CNS": {"test_system": "SF-539 CNS"}, "SK-MEL-2 melanoma": {"test_system": "SK-MEL-2 melanoma"}, "SK-MEL-28 melanoma": {"test_system": "SK-MEL-28 melanoma"}, "SK-MEL-5 melanoma": {"test_system": "SK-MEL-5 melanoma"}, "SK-OV-3 ovarian": {"test_system": "SK-OV-3 ovarian"}, "SN12C renal": {"test_system": "SN12C renal"}, "SNB-19 CNS": {"test_system": "SNB-19 CNS"}, "SNB-75 CNS": {"test_system": "SNB-75 CNS"}, "SNB-78 CNS": {"test_system": "SNB-78 CNS"}, "SR leukemia": {"test_system": "SR leukemia"}, "SW-620 colon": {"test_system": "SW-620 colon"}, "T-47D breast": {"test_system": "T-47D breast"}, "TK-10 renal": {"test_system": "TK-10 renal"}, "U251 CNS": {"test_system": "U251 CNS"}, "UACC-257 melanoma": {"test_system": "UACC-257 melanoma"}, "UACC-62 melanoma": {"test_system": "UACC-62 melanoma"}, "UO-31 renal": {"test_system": "UO-31 renal"}},
  "note": "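Step 1: Grow cells in 96-well plates. Step 2: Expose to compound for 48 hours at 5 concentrations. Step 3: Interpolate endpoints linearly; if unreached, use highest concentration. TGI denotes the concentration required for complete inhibition of growth.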",
  "data": [
    {"smiles": "Cc1ccc2[nH]c3c(C)c4cc[n+](C)cc4c(C)c3c2c1", "values": [
      {"measurement": "TGI", "setting": "786-0 renal", "value": 2.75, "unit": "µM"},
      {"measurement": "TGI", "setting": "A498 renal", "value": 4.53, "unit": "µM"},
      {"measurement": "TGI", "setting": "A549 NSCLC", "value": 4.28, "unit": "µM"},
      {"measurement": "TGI", "setting": "ACHN renal", "value": 57.9, "unit": "µM"},
      {"measurement": "TGI", "setting": "BT-549 breast", "value": 3.05, "unit": "µM"},
      {"measurement": "TGI", "setting": "CAKI-1 renal", "value": "> 56.5", "unit": "µM"},
      {"measurement": "TGI", "setting": "CCRF-CEM leukemia", "value": 40.3, "unit": "µM"},
      {"measurement": "TGI", "setting": "COLO 205 colon", "value": 5.05, "unit": "µM"},
      {"measurement": "TGI", "setting": "DLD-1 colon", "value": 49.8, "unit": "µM"},
      {"measurement": "TGI", "setting": "DMS 114 small cell lung", "value": 2.73, "unit": "µM"},
      {"measurement": "TGI", "setting": "DMS 273 small cell lung", "value": 17.7, "unit": "µM"},
      {"measurement": "TGI", "setting": "DU-145 prostate", "value": 33.5, "unit": "µM"},
      {"measurement": "TGI", "setting": "EKVX NSCLC", "value": 10.3, "unit": "µM"},
      {"measurement": "TGI", "setting": "HCC-2998 colon", "value": 10.1, "unit": "µM"},
      {"measurement": "TGI", "setting": "HCT-116 colon", "value": 32.6, "unit": "µM"},
      {"measurement": "TGI", "setting": "HCT-15 colon", "value": "> 82.6", "unit": "µM"},
      {"measurement": "TGI", "setting": "HL-60(TB) leukemia", "value": 29.8, "unit": "µM"},
      {"measurement": "TGI", "setting": "HOP-18 NSCLC", "value": "> 58.5", "unit": "µM"},
      {"measurement": "TGI", "setting": "HOP-62 NSCLC", "value": 3.28, "unit": "µM"},
      {"measurement": "TGI", "setting": "HOP-92 NSCLC", "value": 33.7, "unit": "µM"},
      {"measurement": "TGI", "setting": "HS 578T breast", "value": 0.917, "unit": "µM"},
      {"measurement": "TGI", "setting": "HT29 colon", "value": 41.6, "unit": "µM"},
      {"measurement": "TGI", "setting": "IGROV1 ovarian", "value": 32.2, "unit": "µM"},
      {"measurement": "TGI", "setting": "K-562 leukemia", "value": 63.4, "unit": "µM"},
      {"measurement": "TGI", "setting": "KM12 colon", "value": 6.89, "unit": "µM"},
      {"measurement": "TGI", "setting": "KM20L2 colon", "value": 71.3, "unit": "µM"},
      {"measurement": "TGI", "setting": "LOX IMVI melanoma", "value": 28.9, "unit": "µM"},
      {"measurement": "TGI", "setting": "LXFL 529 NSCLC", "value": 5.01, "unit": "µM"},
      {"measurement": "TGI", "setting": "M14 melanoma", "value": 28.9, "unit": "µM"},
      {"measurement": "TGI", "setting": "MALME-3M melanoma", "value": 4.38, "unit": "µM"},
      {"measurement": "TGI", "setting": "MCF7 breast", "value": "> 23.8", "unit": "µM"},
      {"measurement": "TGI", "setting": "MDA-MB-231 breast", "value": "> 44.7", "unit": "µM"},
      {"measurement": "TGI", "setting": "MDA-MB-435", "value": 13.7, "unit": "µM"},
      {"measurement": "TGI", "setting": "MDA-N", "value": 22.1, "unit": "µM"},
      {"measurement": "TGI", "setting": "MOLT-4 leukemia", "value": 54.9, "unit": "µM"},
      {"measurement": "TGI", "setting": "NCI-H226 lung", "value": 3.24, "unit": "µM"},
      {"measurement": "TGI", "setting": "NCI-H23 lung", "value": 5.77, "unit": "µM"},
      {"measurement": "TGI", "setting": "NCI-H460 lung", "value": 40.7, "unit": "µM"},
      {"measurement": "TGI", "setting": "NCI-H522 lung", "value": 3.9, "unit": "µM"},
      {"measurement": "TGI", "setting": "NCI/ADR-RES ovarian", "value": "> 100", "unit": "µM"},
      {"measurement": "TGI", "setting": "OVCAR-3 ovarian", "value": 19.2, "unit": "µM"},
      {"measurement": "TGI", "setting": "OVCAR-4 ovarian", "value": 13.4, "unit": "µM"},
      {"measurement": "TGI", "setting": "OVCAR-5 ovarian", "value": 77.1, "unit": "µM"},
      {"measurement": "TGI", "setting": "OVCAR-8 ovarian", "value": 8.97, "unit": "µM"},
      {"measurement": "TGI", "setting": "PC-3 prostate", "value": 7.63, "unit": "µM"},
      {"measurement": "TGI", "setting": "RPMI-8226 leukemia", "value": "> 59.7", "unit": "µM"},
      {"measurement": "TGI", "setting": "RXF 393 renal", "value": 18.3, "unit": "µM"},
      {"measurement": "TGI", "setting": "SF-268 CNS", "value": 1.77, "unit": "µM"},
      {"measurement": "TGI", "setting": "SF-295 CNS", "value": 4.19, "unit": "µM"},
      {"measurement": "TGI", "setting": "SF-539 CNS", "value": 2.73, "unit": "µM"},
      {"measurement": "TGI", "setting": "SK-MEL-2 melanoma", "value": 4.71, "unit": "µM"},
      {"measurement": "TGI", "setting": "SK-MEL-28 melanoma", "value": 8.48, "unit": "µM"},
      {"measurement": "TGI", "setting": "SK-MEL-5 melanoma", "value": 8.54, "unit": "µM"},
      {"measurement": "TGI", "setting": "SK-OV-3 ovarian", "value": 50.2, "unit": "µM"},
      {"measurement": "TGI", "setting": "SN12C renal", "value": 1.52, "unit": "µM"},
      {"measurement": "TGI", "setting": "SNB-19 CNS", "value": 2.53, "unit": "µM"},
      {"measurement": "TGI", "setting": "SNB-75 CNS", "value": 0.761, "unit": "µM"},
      {"measurement": "TGI", "setting": "SNB-78 CNS", "value": 4.82, "unit": "µM"},
      {"measurement": "TGI", "setting": "SR leukemia", "value": 70.7, "unit": "µM"},
      {"measurement": "TGI", "setting": "SW-620 colon", "value": 12.2, "unit": "µM"},
      {"measurement": "TGI", "setting": "T-47D breast", "value": 6.83, "unit": "µM"},
      {"measurement": "TGI", "setting": "TK-10 renal", "value": "> 96.3", "unit": "µM"},
      {"measurement": "TGI", "setting": "U251 CNS", "value": 2.11, "unit": "µM"},
      {"measurement": "TGI", "setting": "UACC-257 melanoma", "value": 20.2, "unit": "µM"},
      {"measurement": "TGI", "setting": "UACC-62 melanoma", "value": 16.4, "unit": "µM"},
      {"measurement": "TGI", "setting": "UO-31 renal", "value": 60.2, "unit": "µM"}
    ]}
  ]
}
